Test results as given in patent publication US10681909B2, “Herbicidal triazoles” (FMC Corporation, priority 2014, dated 2020).

Columns and labels:
[1] = system: pigweed; experiment: Test A preemergence; type: in vivo, Amaranthus retroflexus; settings: Amaranthus retroflexus, pre-emergence, 240 h, 0 to 100 scale (0 no effect, 100 complete control), read-out: Plant response rating, Pigweed; for pest or weed control at 125 g/ha: 125 g ai/ha
How it was run: (§1)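 Test chemicals, formulated in a surfactant-containing non-phytotoxic solvent mixture, are applied either as a directed soil spray to newly planted seeds or as a postemergence application to plants at the one- to two-leaf stage (2–10 cm). All plants grow in a loam soil and sand blend.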

[2] = system: corn; experiment: Test A postemergence; type: in vivo, Zea mays; settings: Zea mays, post-emergence, 240 h, 0 to 100 scale (0 no effect, 100 complete control), approx. 10 d; for Corn plant response rating (crop injury, 0 = no effect, 100 = complete kill) at 125 g/ha: 125 g ai/ha
How it was run: as §1

[3] = system: barnyardgrass; experiment: Test A postemergence; type: in vivo, Echinochloa crus-galli; settings: Echinochloa crus-galli, post-emergence, 240 h, 0 to 100 scale (0 no effect, 100 complete control), approx. 10 d, read-out: Plant response rating, Barnyardgrass; for pest or weed control at 125 g/ha: 125 g ai/ha
How it was run: as §1

[4] = system: foxtail, giant; experiment: Test A postemergence; type: in vivo, Setaria faberii; settings: Setaria faberi, post-emergence, 240 h, 0 to 100 scale (0 no effect, 100 complete control), approx. 10 d, read-out: Plant response rating, Foxtail, Giant; for pest or weed control at 125 g/ha: 125 g ai/ha
How it was run: as §1

[5] = system: chickweed; experiment: Test C postemergence; type: in vivo, Stellaria media
Source text: (§2) Seeds of plant species selected from blackgrass (Alopecurus myosuroides), ryegrass, Italian (Italian ryegrass, Lolium multiflorum), wheat (winter wheat, Triticum aestivum), galium (catchweed bedstraw, Galium aparine), corn (Zea mays), crabgrass, large (large crabgrass, Digitaria sanguinalis), foxtail, giant, (giant foxtail, Setaria faberii), johnsongrass (Sorghum halepense), lambsquarters (Chenopodium album), morningglory (Ipomoea coccinea), nutsedge, yellow (yellow nutsedge, Cyperus esculentus), pigweed (Amaranthus retroflexus), ragweed (common ragweed, Ambrosia elatior), soybean (Glycine max), barnyardgrass (Echinochloa crus-galli), oilseed rape (Brassica napus), waterhemp (common waterhemp, Amaranthus rudis), and velvetleaf (Abutilon theophrasti) were planted into a blend of loam soil and sand and treated preemergence with test chemicals formulated in a non-phytotoxic solvent mixture which included a surfactant. At the same time, plants selected from these crop and weed species and also chickweed (common chickweed, Stellaria media), oat, wild (wild oat, Avena fatua), and kochia (Kochia scoparia), were planted in pots containing Sunshine Redi-Earth® planting medium comprising spaghnum peat moss, vermiculite, starter nutrients and dolomitic limestone and treated with postemergence applications of test chemicals formulated in the same manner. Plants ranged in height from 2 to 18 cm (1- to 4-leaf stage) for postemergence treatments. […] A dash (-) response means no test result.

[6] = system: oat, wild; experiment: Test C postemergence; type: in vivo, Avena fatua
Source text: as §2

[7] = system: velvetleaf; experiment: Test C postemergence; type: in vivo, Abutilon theophrasti
Source text: as §2

[8] = system: nutsedge, yellow; experiment: Test C postemergence; type: in vivo, Cyperus esculentus
Source text: as §2

[9] = system: barnyardgrass; experiment: Test C postemergence; type: in vivo, Echinochloa crus-galli
Source text: as §2

[10] = system: ryegrass, Italian; experiment: Test C postemergence; type: in vivo, Lolium multiflorum
Source text: as §2

[11] = system: wheat (winter wheat); experiment: Test C postemergence; type: in vivo, Triticum aestivum
Source text: as §2

[12] = system: kochia; experiment: Test C postemergence; type: in vivo, Kochia scoparia
Source text: as §2

[13] = system: oilseed rape; experiment: Test C postemergence; type: in vivo, Brassica napus
Source text: as §2

[14] = system: blackgrass; experiment: Test C postemergence; type: in vivo, Alopecurus myosuroides
Source text: as §2

[15] = system: johnsongrass; experiment: Test C postemergence; type: in vivo, Sorghum halepense
Source text: as §2

[16] = system: ragweed; experiment: Test C postemergence; type: in vivo, Ambrosia elatior
Source text: as §2

[17] = system: pigweed; experiment: Test C postemergence; type: in vivo, Amaranthus retroflexus
Source text: as §2

[18] = system: foxtail, giant; experiment: Test C postemergence; type: in vivo, Setaria faberii
Source text: as §2

## Cn1nc(-c2ccc(F)cc2)nc1Oc1cccc(C(F)(F)F)c1 [Compound 5, 3-(4-fluorophenyl)-1-methyl-5-[3-(trifluoromethyl)phenoxy]-1H-1,2,4-triazole]
[1]
  pest or weed control at 125 g/ha: 40%
[1]; 500 g ai/ha, approx. 10 d
  pest or weed control at 500 g/ha: 50%
[2]
  Corn plant response rating (crop injury, 0 = no effect, 100 = complete kill) at 125 g/ha: 10%
[2]; 500 g ai/ha
  Corn plant response rating (crop injury, 0 = no effect, 100 = complete kill) at 500 g/ha: 20%
[3]
  pest or weed control at 125 g/ha: 10%
[3]; 500 g ai/ha
  pest or weed control at 500 g/ha: 30%
[4]
  pest or weed control at 125 g/ha: 20%
[4]; 500 g ai/ha
  pest or weed control at 500 g/ha: 70%

## CCOc1nc(-c2ccc(C(F)(F)F)cc2)nn1Cc1ccnc(C(F)(F)F)c1 [Compound 35, 4-[[5-ethoxy-3-[4-(trifluoromethyl)phenyl]-1H-1,2,4-triazole-1-yl]methyl]-2-(trifluoromethyl)pyridine]
[5]; 31 g ai/ha
  Plant response rating (scale of 0 to 100 where 0 is no effect and 100 is complete control): 100
[5]; 62 g ai/ha
  Plant response rating (scale of 0 to 100 where 0 is no effect and 100 is complete control): 100
[5]; 125 g ai/ha
  Plant response rating (scale of 0 to 100 where 0 is no effect and 100 is complete control): 100
[5]; 250 g ai/ha
  Plant response rating (scale of 0 to 100 where 0 is no effect and 100 is complete control): 100
[6]; 31 g ai/ha
  Plant response rating (scale of 0 to 100 where 0 is no effect and 100 is complete control): 45
[6]; 62 g ai/ha
  Plant response rating (scale of 0 to 100 where 0 is no effect and 100 is complete control): 50
[6]; 125 g ai/ha
  Plant response rating (scale of 0 to 100 where 0 is no effect and 100 is complete control): 85
[6]; 250 g ai/ha
  Plant response rating (scale of 0 to 100 where 0 is no effect and 100 is complete control): 90
[7]; 31 g ai/ha
  Plant response rating (scale of 0 to 100 where 0 is no effect and 100 is complete control): 65
[7]; 62 g ai/ha
  Plant response rating (scale of 0 to 100 where 0 is no effect and 100 is complete control): 75
[7]; 125 g ai/ha
  Plant response rating (scale of 0 to 100 where 0 is no effect and 100 is complete control): 80
[7]; 250 g ai/ha
  Plant response rating (scale of 0 to 100 where 0 is no effect and 100 is complete control): 85
[1]; 31 g ai/ha
  pest or weed control at 31 g/ha: 100%
[1]
  pest or weed control at 125 g/ha: 100%
[2]; 31 g ai/ha
  Corn plant response rating (crop injury, 0 = no effect, 100 = complete kill) at 31 g/ha: 40%
[2]
  Corn plant response rating (crop injury, 0 = no effect, 100 = complete kill) at 125 g/ha: 80%
[8]; 31 g ai/ha
  Plant response rating (scale of 0 to 100 where 0 is no effect and 100 is complete control): 20
[8]; 62 g ai/ha
  Plant response rating (scale of 0 to 100 where 0 is no effect and 100 is complete control): 10
[8]; 125 g ai/ha
  Plant response rating (scale of 0 to 100 where 0 is no effect and 100 is complete control): 30
[8]; 250 g ai/ha
  Plant response rating (scale of 0 to 100 where 0 is no effect and 100 is complete control): 35
[9]; 31 g ai/ha
  Plant response rating (scale of 0 to 100 where 0 is no effect and 100 is complete control): 30
[9]; 62 g ai/ha
  Plant response rating (scale of 0 to 100 where 0 is no effect and 100 is complete control): 45
[9]; 125 g ai/ha
  Plant response rating (scale of 0 to 100 where 0 is no effect and 100 is complete control): 60
[9]; 250 g ai/ha
  Plant response rating (scale of 0 to 100 where 0 is no effect and 100 is complete control): 85
[10]; 31 g ai/ha
  Plant response rating (scale of 0 to 100 where 0 is no effect and 100 is complete control): 30
[10]; 62 g ai/ha
  Plant response rating (scale of 0 to 100 where 0 is no effect and 100 is complete control): 55
[10]; 125 g ai/ha
  Plant response rating (scale of 0 to 100 where 0 is no effect and 100 is complete control): 60
[10]; 250 g ai/ha
  Plant response rating (scale of 0 to 100 where 0 is no effect and 100 is complete control): 80
[11]; 31 g ai/ha
  Plant response rating (scale of 0 to 100 where 0 is no effect and 100 is complete control): 15
[11]; 62 g ai/ha
  Plant response rating (scale of 0 to 100 where 0 is no effect and 100 is complete control): 20
[11]; 125 g ai/ha
  Plant response rating (scale of 0 to 100 where 0 is no effect and 100 is complete control): 35
[11]; 250 g ai/ha
  Plant response rating (scale of 0 to 100 where 0 is no effect and 100 is complete control): 30
[12]; 31 g ai/ha
  Plant response rating (scale of 0 to 100 where 0 is no effect and 100 is complete control): 90
[12]; 62 g ai/ha
  Plant response rating (scale of 0 to 100 where 0 is no effect and 100 is complete control): 90
[12]; 125 g ai/ha
  Plant response rating (scale of 0 to 100 where 0 is no effect and 100 is complete control): 90
[12]; 250 g ai/ha
  Plant response rating (scale of 0 to 100 where 0 is no effect and 100 is complete control): 90
[13]; Oilsee Rape, 250 g ai/ha
  Plant response rating (scale of 0 to 100 where 0 is no effect and 100 is complete control): 98
[13]; Oilseed Rape, 31 g ai/ha
  Plant response rating (scale of 0 to 100 where 0 is no effect and 100 is complete control): 80
[13]; Oilseed Rape, 62 g ai/ha
  Plant response rating (scale of 0 to 100 where 0 is no effect and 100 is complete control): 90
[13]; Oilseed Rape, 125 g ai/ha
  Plant response rating (scale of 0 to 100 where 0 is no effect and 100 is complete control): 80
[14]; 31 g ai/ha
  Plant response rating (scale of 0 to 100 where 0 is no effect and 100 is complete control): 65
[14]; 62 g ai/ha
  Plant response rating (scale of 0 to 100 where 0 is no effect and 100 is complete control): 70
[14]; 125 g ai/ha
  Plant response rating (scale of 0 to 100 where 0 is no effect and 100 is complete control): 85
[14]; 250 g ai/ha
  Plant response rating (scale of 0 to 100 where 0 is no effect and 100 is complete control): 85
[3]; 31 g ai/ha
  pest or weed control at 31 g/ha: 80%
[3]
  pest or weed control at 125 g/ha: 90%
[15]; 31 g ai/ha
  Plant response rating (scale of 0 to 100 where 0 is no effect and 100 is complete control): 75
[15]; 62 g ai/ha
  Plant response rating (scale of 0 to 100 where 0 is no effect and 100 is complete control): 85
[15]; 125 g ai/ha
  Plant response rating (scale of 0 to 100 where 0 is no effect and 100 is complete control): 95
[15]; 250 g ai/ha
  Plant response rating (scale of 0 to 100 where 0 is no effect and 100 is complete control): 100
[16]; 31 g ai/ha
  Plant response rating (scale of 0 to 100 where 0 is no effect and 100 is complete control): 65
[16]; 62 g ai/ha
  Plant response rating (scale of 0 to 100 where 0 is no effect and 100 is complete control): 75
[16]; 125 g ai/ha
  Plant response rating (scale of 0 to 100 where 0 is no effect and 100 is complete control): 80
[16]; 250 g ai/ha
  Plant response rating (scale of 0 to 100 where 0 is no effect and 100 is complete control): 85
[17]; 31 g ai/ha
  Plant response rating (scale of 0 to 100 where 0 is no effect and 100 is complete control): 98
[17]; 62 g ai/ha
  Plant response rating (scale of 0 to 100 where 0 is no effect and 100 is complete control): 98
[17]; 125 g ai/ha
  Plant response rating (scale of 0 to 100 where 0 is no effect and 100 is complete control): 100
[17]; 250 g ai/ha
  Plant response rating (scale of 0 to 100 where 0 is no effect and 100 is complete control): 100
[4]; 31 g ai/ha
  pest or weed control at 31 g/ha: 80%
[4]
  pest or weed control at 125 g/ha: 90%
[18]; 31 g ai/ha
  Plant response rating (scale of 0 to 100 where 0 is no effect and 100 is complete control): 25
[18]; 62 g ai/ha
  Plant response rating (scale of 0 to 100 where 0 is no effect and 100 is complete control): 40
[18]; 125 g ai/ha
  Plant response rating (scale of 0 to 100 where 0 is no effect and 100 is complete control): 70
[18]; 250 g ai/ha
  Plant response rating (scale of 0 to 100 where 0 is no effect and 100 is complete control): 85
